Data: ChEMBL document CHEMBL1125766, “Synthesis and antiviral activity of certain guanosine analogues in the thiazolo[4,5-d]pyrimidine ring system” (1991)
Where “and” joins values, the source holds several entries; their conditions need not be identical. Identical values can stand only once.

How the values were obtained:
Assay type in all cases: functional
Mus musculus [1] = assay: Compound was tested for its activity against forest virus infection in mice, activity was determined by measuring the number of survived mice after 200 mg/kg administration.
Mus musculus [2] = assay: Compound was tested for mean survival time through 21 days after administration of 100 mg/kg, 24 and 18 hr prior to virus inoculation ( forest virus) in mice
Mus musculus [3] = assay: Compound was tested for its activity against forest virus infection in mice, activity was determined by measuring the number of survived mice after 100 mg/kg administration.
Mus musculus [4] = assay: Compound was tested for mean survival time through 21 days after administration of 200 mg/kg, 24 and 18 hr prior to virus inoculation ( forest virus) in mice
Mus musculus [5] = assay: Compound was tested for its activity against forest virus infection in mice, activity was determined by measuring the number of survived mice after 50 mg/kg administration
Mus musculus [6] = assay: Compound was tested for mean survival time through 21 days after administration of 25 mg/kg, 24 and 18 hr prior to virus inoculation ( forest virus) in mice
Mus musculus [7] = assay: Compound was tested for its activity against forest virus infection in mice, activity was determined by measuring the number of survived mice after 100 mg/kg administration
Mus musculus [8] = assay: Compound was tested for its activity against forest virus infection in mice, activity was determined by measuring the number of survived mice after 25 mg/kg administration
Mus musculus [9] = assay: Compound was tested for its activity against forest virus infection in mice, activity was determined by measuring the number of survived mice after 150 mg/kg subcutaneous administration.
Mus musculus [10] = assay: Compound was tested for its activity against intraperitoneal administration.
Mus musculus [11] = assay: Compound was tested for its activity against forest virus infection in mice, activity was determined by measuring the number of survived mice after 150 mg/kg intravenous administration.
Mus musculus [12] = assay: Compound was tested for mean survival time through 21 days after intraperitoneal administration of 150 mg/kg, 24 hr prior to virus inoculation ( forest virus) in mice
Mus musculus [13] = assay: Compound was tested for mean survival time through 21 days after intravenous administration of 150 mg/kg, 24 hr prior to virus inoculation ( forest virus) in mice
Mus musculus [14] = assay: Compound was tested for mean survival time through 21 days after oral administration of 150 mg/kg, 24 hr prior to virus inoculation ( forest virus) in mice
Mus musculus [15] = assay: Compound was tested for its activity against forest virus infection in mice, activity was determined by measuring the number of survived mice after 150 mg/kg oral administration.
Mus musculus [16] = assay: Compound was tested for mean survival time through 21 days after subcutaneous administration of 150 mg/kg, 24 hr prior to virus inoculation ( forest virus) in mice

Nc1nc(O)c2sc(=O)n([C@H]3C[C@H](O)[C@@H](CO)O3)c2n1
Survivors (Mus musculus [1]): 83%
Mean survival time (Mus musculus [2]): 6.8 days
Survivors (Mus musculus [3]): 50%
Mean survival time (Mus musculus [4]): 7 days

Nc1nc(O)c2sc(=O)n(C(CO)OC(CO)CO)c2n1 (stereo not given)
Survivors (Mus musculus [1]): 0%
Mean survival time (Mus musculus [2]): 7 days
Survivors (Mus musculus [3]): 8%
Mean survival time (Mus musculus [4]): 7.8 days

Nc1nc(O)c2sc(=O)n([C@@H]3O[C@@H]4COP(=O)(O)O[C@H]4[C@H]3O)c2n1
Survivors (Mus musculus [5]): 17%
Mean survival time (Mus musculus [2]): 7 days
Mean survival time (Mus musculus [6]): 7.1 days and 7.3 days
Survivors (Mus musculus [7]): 50%
Survivors (Mus musculus [8]): 42%

Nc1nc(O)c2sc(=O)n(C3O[C@H](COP(=O)(O)O)[C@@H](O)[C@H]3O)c2n1 (stereo not given in full)
Survivors (Mus musculus [5]): 50%
Mean survival time (Mus musculus [2]): 6.5 days
Mean survival time (Mus musculus [6]): 8.1 days and 7.1 days
Survivors (Mus musculus [7]): 67%
Survivors (Mus musculus [8]): 25%

Nc1nc(O)c2sc(=O)n(C3O[C@H](COS(N)(=O)=O)[C@@H](O)[C@H]3O)c2n1 (stereo not given in full)
Survivors (Mus musculus [1]): 8%
Mean survival time (Mus musculus [2]): 8 days
Survivors (Mus musculus [3]): 17%
Mean survival time (Mus musculus [4]): 8.2 days

CC(=O)OC[C@H]1O[C@@H](n2c(=O)sc3c(O)nc(N)nc32)[C@H](OC(C)=O)[C@@H]1OC(C)=O
Survivors (Mus musculus [9]): 82%
Survivors (Mus musculus [10]): 92%
Survivors (Mus musculus [11]): 42%
Mean survival time (Mus musculus [12]): 8 days
Mean survival time (Mus musculus [13]): 7.9 days
Mean survival time (Mus musculus [14]): 6.6 days
Survivors (Mus musculus [15]): 17%
Mean survival time (Mus musculus [16]): 7 days

C[C@H]1OC(n2c(=O)sc3c(O)nc(N)nc32)[C@H](O)[C@@H]1O (stereo not given in full)
Survivors (Mus musculus [1]): 0%
Mean survival time (Mus musculus [2]): 8 days
Survivors (Mus musculus [3]): 8%
Mean survival time (Mus musculus [4]): 8.4 days

Nc1nc(=O)c2sc(=O)n([C@@H]3O[C@H](CO)[C@@H](O)[C@H]3O)c2[nH]1 [ISATORIBINE]
Survivors (Mus musculus [9]): 100%
Survivors (Mus musculus [1]): 100%
Survivors (Mus musculus [10]): 91%
Survivors (Mus musculus [5]): 25%
Mean survival time (Mus musculus [2]; 100 mg/kg): 6.5 days and 10 days
Survivors (Mus musculus [11]): 73%
Mean survival time (Mus musculus [12]): 7 days
Mean survival time (Mus musculus [6]): 8.8 days and 7.2 days
Survivors (Mus musculus [7]): 50%
Survivors (Mus musculus [3]): 92%
Survivors (Mus musculus [8]): 25%
Mean survival time (Mus musculus [13]): 8 days
Mean survival time (Mus musculus [14]): 7.1 days
Survivors (Mus musculus [15]): 25%
Mean survival time (Mus musculus [4]): >21 days
Mean survival time (Mus musculus [16]): >21 days
